Oligonucleotides are written 5' to 3', each unit as a sugar letter and its base; * is a phosphorothioate linkage, no mark a phosphodiester; rarer units and linkages stand in square brackets, end groups in braces. Plain capitals give the bases only. d = 2'-deoxy (DNA); r = 2'-OH (RNA)
Target: UFC1
Experiment: reporter assay of Huesken 2005
Conditions: siRNA
Further: test concentration or dose not given here.

Row | Substance | normalised inhibition (eCFP-eYFP dual reporter) [%]
1 | sense rArUrCrArGrUrCrCrCrUrUrArUrCrCrGrGrUrAdTdT / antisense rUrArCrCrGrGrArUrArArGrGrGrArCrUrGrArUdAdT | 99.1
2 | sense rArUrCrCrArArCrArCrArArArGrArGrArArArUdTdT / antisense rArUrUrUrCrUrCrUrUrUrGrUrGrUrUrGrGrArUdGdA | 69.1
3 | sense rArUrCrUrCrArUrGrGrCrUrCrUrGrGrGrGrCrUdTdT / antisense rArGrCrCrCrCrArGrArGrCrCrArUrGrArGrArUdGdA | 53.8
4 | sense rArUrGrGrArArArGrArCrArGrCrArArArGrArUdTdT / antisense rArUrCrUrUrUrGrCrUrGrUrCrUrUrUrCrCrArUdCdC | 69.9
5 | sense rArUrUrGrCrArGrUrUrCrCrUrGrArGrCrUrGrGdTdT / antisense rCrCrArGrCrUrCrArGrGrArArCrUrGrCrArArUdTdT | 61.6
6 | sense rCrArGrCrGrArCrUrGrArArGrGrArGrGrArArUdTdT / antisense rArUrUrCrCrUrCrCrUrUrCrArGrUrCrGrCrUrGdCdA | 100
7 | sense rCrArGrUrCrCrCrUrUrArUrCrCrGrGrUrArUrGdTdT / antisense rCrArUrArCrCrGrGrArUrArArGrGrGrArCrUrGdAdT | 78.8
8 | sense rCrCrGrGrArCrCrCrCrGrArGrArUrCrGrUrGrAdTdT / antisense rUrCrArCrGrArUrCrUrCrGrGrGrGrUrCrCrGrGdCdG | 56.6
9 | sense rCrCrGrGrUrArUrGrUrGrGrArGrArArCrArArCdTdT / antisense rGrUrUrGrUrUrCrUrCrCrArCrArUrArCrCrGrGdAdT | 72.3
10 | sense rCrCrUrGrArGrCrUrGrGrArUrGrGrArArArGrAdTdT / antisense rUrCrUrUrUrCrCrArUrCrCrArGrCrUrCrArGrGdAdA | 120
11 | sense rCrGrArGrUrUrUrGrArCrArUrUrCrCrUrArUrCdTdT / antisense rGrArUrArGrGrArArUrGrUrCrArArArCrUrCrGdAdT | 95.7
12 | sense rCrGrUrCrArUrCrCrArArCrArCrArArArGrArGdTdT / antisense rCrUrCrUrUrUrGrUrGrUrUrGrGrArUrGrArCrGdCdC | 86.3
13 | sense rCrUrGrArCrGrGrArUrCrArUrUrUrCrArArArCdTdT / antisense rGrUrUrUrGrArArArUrGrArUrCrCrGrUrCrArGdGdC | 65.7
14 | sense rCrUrGrArUrCrUrGrArUrUrCrArGrArArGrGrGdTdT / antisense rCrCrCrUrUrCrUrGrArArUrCrArGrArUrCrArGdGdG | 73.2
15 | sense rCrUrGrGrArGrUrCrCrArArCrArArGrGrArArGdTdT / antisense rCrUrUrCrCrUrUrGrUrUrGrGrArCrUrCrCrArGdTdC | 66.3
16 | sense rCrUrGrGrGrUrCrCrArUrGrGrCrUrGrGrCrArGdTdT / antisense rCrUrGrCrCrArGrCrCrArUrGrGrArCrCrCrArGdCdC | 60.5
17 | sense rCrUrUrArUrCrCrGrGrUrArUrGrUrGrGrArGrAdTdT / antisense rUrCrUrCrCrArCrArUrArCrCrGrGrArUrArArGdGdG | 78.4
18 | sense rGrArArArUrArUrGrArGrUrUrUrGrArCrArUrCdTdT / antisense rGrArUrGrUrCrArArArCrUrCrArUrArUrUrUrCdAdG | 66.9
19 | sense rGrArArCrUrCrGrGrUrGrGrUrUrUrGrGrArArAdTdT / antisense rUrUrUrCrCrArArArCrCrArCrCrGrArGrUrUrCdCdT | 97.7
20 | sense rGrArArUrGrUrGrCrCrCrArArArUrUrUrGrGrAdTdT / antisense rUrCrCrArArArUrUrUrGrGrGrCrArCrArUrUrCdCdT | 67.9

Reference: the OligoGym collection
